Test: xn = mol fraction of the nth substance listed
Settings: Vibrating tube method

S [hydrogen sulfide] + CCC
Settings	mass density [kg/m3]
263.11 K, 8 kPa, Gas, x1 = 0.2227	0.1
263.11 K, 159 kPa, Gas, x1 = 0.2227	3.1
263.11 K, 298 kPa, Gas, x1 = 0.2227	6.1
263.11 K, 438 kPa, Gas, x1 = 0.2227	9.1
263.11 K, 707 kPa, Liquid, x1 = 0.2227	571.2
263.11 K, 2357 kPa, Liquid, x1 = 0.2227	574.3
263.11 K, 4057 kPa, Liquid, x1 = 0.2227	577.3
263.11 K, 5814 kPa, Liquid, x1 = 0.2227	580.3
263.11 K, 7697 kPa, Liquid, x1 = 0.2227	583.3
263.11 K, 9735 kPa, Liquid, x1 = 0.2227	586.4
263.11 K, 11879 kPa, Liquid, x1 = 0.2227	589.5
263.11 K, 14087 kPa, Liquid, x1 = 0.2227	592.6
263.11 K, 16300 kPa, Liquid, x1 = 0.2227	595.6
263.11 K, 18708 kPa, Liquid, x1 = 0.2227	598.6
263.11 K, 21118 kPa, Liquid, x1 = 0.2227	601.6
263.11 K, 23736 kPa, Liquid, x1 = 0.2227	604.6
263.11 K, 26466 kPa, Liquid, x1 = 0.2227	607.7
263.11 K, 29282 kPa, Liquid, x1 = 0.2227	610.8
263.11 K, 32290 kPa, Liquid, x1 = 0.2227	613.9
263.11 K, 35311 kPa, Liquid, x1 = 0.2227	616.9
263.11 K, 38486 kPa, Liquid, x1 = 0.2227	620
263.11 K, 41881 kPa, Liquid, x1 = 0.2227	623.1
268.09 K, 9 kPa, Gas, x1 = 0.2691	0.2
268.09 K, 180 kPa, Gas, x1 = 0.2691	3.5
268.09 K, 335 kPa, Gas, x1 = 0.2691	6.7
268.09 K, 476 kPa, Gas, x1 = 0.2691	9.7
268.09 K, 818 kPa, Liquid, x1 = 0.2691	570
268.09 K, 2369 kPa, Liquid, x1 = 0.2691	573.1
268.09 K, 3999 kPa, Liquid, x1 = 0.2691	576.3
268.09 K, 5608 kPa, Liquid, x1 = 0.2691	579.3
268.09 K, 7451 kPa, Liquid, x1 = 0.2691	582.5
268.09 K, 9258 kPa, Liquid, x1 = 0.2691	585.5
268.09 K, 11262 kPa, Liquid, x1 = 0.2691	588.7
268.09 K, 13236 kPa, Liquid, x1 = 0.2691	591.8
268.09 K, 15455 kPa, Liquid, x1 = 0.2691	595
268.09 K, 17739 kPa, Liquid, x1 = 0.2691	598.2
268.09 K, 20006 kPa, Liquid, x1 = 0.2691	601.2
268.09 K, 22487 kPa, Liquid, x1 = 0.2691	604.4
268.09 K, 24903 kPa, Liquid, x1 = 0.2691	607.4
268.09 K, 27518 kPa, Liquid, x1 = 0.2691	610.5
268.09 K, 30199 kPa, Liquid, x1 = 0.2691	613.6
268.09 K, 33045 kPa, Liquid, x1 = 0.2691	616.7
268.09 K, 36027 kPa, Liquid, x1 = 0.2691	619.8
268.09 K, 39139 kPa, Liquid, x1 = 0.2691	622.9
293.28 K, 14 kPa, Gas, x1 = 0.2227	0.2
293.28 K, 186 kPa, Gas, x1 = 0.2227	3.3
293.28 K, 350 kPa, Gas, x1 = 0.2227	6.3
293.28 K, 509 kPa, Gas, x1 = 0.2227	9.4
293.28 K, 665 kPa, Gas, x1 = 0.2227	12.6
293.28 K, 804 kPa, Gas, x1 = 0.2227	15.6
293.28 K, 932 kPa, Gas, x1 = 0.2227	18.7
293.28 K, 1050 kPa, Gas, x1 = 0.2227	21.9
293.28 K, 3770 kPa, Liquid, x1 = 0.2227	518.4
293.28 K, 4686 kPa, Liquid, x1 = 0.2227	521.6
293.28 K, 5576 kPa, Liquid, x1 = 0.2227	524.8
293.28 K, 6556 kPa, Liquid, x1 = 0.2227	527.8
293.28 K, 7610 kPa, Liquid, x1 = 0.2227	530.9
293.28 K, 8755 kPa, Liquid, x1 = 0.2227	534.1
293.28 K, 9941 kPa, Liquid, x1 = 0.2227	537.3
293.28 K, 11195 kPa, Liquid, x1 = 0.2227	540.5
293.28 K, 12466 kPa, Liquid, x1 = 0.2227	543.5
293.28 K, 13825 kPa, Liquid, x1 = 0.2227	546.6
293.28 K, 15156 kPa, Liquid, x1 = 0.2227	549.6
293.28 K, 16605 kPa, Liquid, x1 = 0.2227	552.6
293.28 K, 18128 kPa, Liquid, x1 = 0.2227	555.6
293.28 K, 19790 kPa, Liquid, x1 = 0.2227	558.8
293.28 K, 21473 kPa, Liquid, x1 = 0.2227	561.9
293.28 K, 23224 kPa, Liquid, x1 = 0.2227	564.9
293.28 K, 25127 kPa, Liquid, x1 = 0.2227	568.1
293.28 K, 27137 kPa, Liquid, x1 = 0.2227	571.3
293.28 K, 29216 kPa, Liquid, x1 = 0.2227	574.5
293.28 K, 31365 kPa, Liquid, x1 = 0.2227	577.6
293.28 K, 33453 kPa, Liquid, x1 = 0.2227	580.6
293.28 K, 35831 kPa, Liquid, x1 = 0.2227	583.8
313.12 K, 202 kPa, Gas, x1 = 0.2691	3.3
313.12 K, 382 kPa, Gas, x1 = 0.2691	6.4
313.12 K, 558 kPa, Gas, x1 = 0.2691	9.5
313.12 K, 722 kPa, Gas, x1 = 0.2691	12.6
313.12 K, 878 kPa, Gas, x1 = 0.2691	15.7
313.12 K, 1040 kPa, Gas, x1 = 0.2691	19
313.12 K, 1178 kPa, Gas, x1 = 0.2691	22
313.12 K, 1322 kPa, Gas, x1 = 0.2691	25.3
313.12 K, 1455 kPa, Gas, x1 = 0.2691	28.5
313.12 K, 1580 kPa, Gas, x1 = 0.2691	31.7
313.12 K, 1693 kPa, Gas, x1 = 0.2691	34.9
313.12 K, 1773 kPa, Gas, x1 = 0.2691	37.9
313.12 K, 2189 kPa, Liquid, x1 = 0.2691	491.5
313.12 K, 2787 kPa, Liquid, x1 = 0.2691	494.6
313.12 K, 3465 kPa, Liquid, x1 = 0.2691	498
313.12 K, 4173 kPa, Liquid, x1 = 0.2691	501.2
313.12 K, 4917 kPa, Liquid, x1 = 0.2691	504.4
313.12 K, 5710 kPa, Liquid, x1 = 0.2691	507.6
313.12 K, 6516 kPa, Liquid, x1 = 0.2691	510.6
313.12 K, 7434 kPa, Liquid, x1 = 0.2691	513.9
313.12 K, 8423 kPa, Liquid, x1 = 0.2691	517.3
313.12 K, 9421 kPa, Liquid, x1 = 0.2691	520.5
313.12 K, 10495 kPa, Liquid, x1 = 0.2691	523.7
313.12 K, 11669 kPa, Liquid, x1 = 0.2691	527.1
313.12 K, 12933 kPa, Liquid, x1 = 0.2691	530.5
313.12 K, 14205 kPa, Liquid, x1 = 0.2691	533.7
313.12 K, 15491 kPa, Liquid, x1 = 0.2691	536.9
313.12 K, 16847 kPa, Liquid, x1 = 0.2691	540
313.12 K, 18303 kPa, Liquid, x1 = 0.2691	543.3
313.12 K, 19787 kPa, Liquid, x1 = 0.2691	546.4
313.12 K, 21354 kPa, Liquid, x1 = 0.2691	549.6
313.12 K, 22903 kPa, Liquid, x1 = 0.2691	552.6
313.12 K, 24556 kPa, Liquid, x1 = 0.2691	555.7
313.12 K, 26292 kPa, Liquid, x1 = 0.2691	558.8
313.12 K, 28082 kPa, Liquid, x1 = 0.2691	561.8
313.12 K, 29973 kPa, Liquid, x1 = 0.2691	564.9
313.12 K, 32005 kPa, Liquid, x1 = 0.2691	568.1
313.12 K, 34062 kPa, Liquid, x1 = 0.2691	571.2
313.12 K, 36163 kPa, Liquid, x1 = 0.2691	574.3
313.12 K, 38383 kPa, Liquid, x1 = 0.2691	577.4
333.22 K, 50 kPa, Gas, x1 = 0.2227	0.8
333.22 K, 260 kPa, Gas, x1 = 0.2227	4.1
333.22 K, 470 kPa, Gas, x1 = 0.2227	7.5
333.22 K, 671 kPa, Gas, x1 = 0.2227	10.9
333.22 K, 838 kPa, Gas, x1 = 0.2227	13.9
333.22 K, 995 kPa, Gas, x1 = 0.2227	16.9
333.22 K, 1186 kPa, Gas, x1 = 0.2227	20.5
333.22 K, 1363 kPa, Gas, x1 = 0.2227	24.1
333.22 K, 1512 kPa, Gas, x1 = 0.2227	27.2
333.22 K, 1663 kPa, Gas, x1 = 0.2227	30.6
333.22 K, 1805 kPa, Gas, x1 = 0.2227	33.9
333.22 K, 1931 kPa, Gas, x1 = 0.2227	37
